From paper PMC6576746, “Rational discovery of dual-indication multi-target PDE/Kinase inhibitor for precision anti-cancer therapy using structural systems pharmacology” (PLoS Computational Biology, 2019)

Tests used:
Experiment in all cases: biochemical
Set-up in all cases: DiscoverX KinomeScan competition binding assay across human kinases; per cent of control at 10 and 100 uM
[1] = biological target: T1, MST1 (Homo sapiens, UniProt Q13043); conditions: competition binding, % of control; read-out: Percent Control (100 uM Levosimendan)
T1 construct: gene STK4
Method in brief: (§1)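 Binding is expressed as %control, normalised between positive and negative control signals. The compound (levosimendan) was tested at 10 μM and 100 μM in the DiscoverX KinomeScan competition binding format against human kinases.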

[2] = biological target: IRAK3 (Homo sapiens, UniProt Q9Y616); conditions: competition binding, % of control; read-out: Percent Control (100 uM Levosimendan)
Method in brief: as §1

[3] = biological target: STK35 (Homo sapiens, UniProt Q8TDR2); conditions: competition binding, % of control; read-out: Percent Control (100 uM Levosimendan)
Method in brief: as §1

[4] = biological target: PAK4 (Homo sapiens, UniProt O96013); conditions: competition binding, % of control; read-out: Percent Control (100 uM Levosimendan)
Method in brief: as §1

[5] = biological target: EPHA3 (Homo sapiens, UniProt P29320); conditions: competition binding, % of control; read-out: Percent Control (100 uM Levosimendan)
Method in brief: as §1

[6] = biological target: MAP4K3 (Homo sapiens, UniProt Q8IVH8); conditions: competition binding, % of control; read-out: Percent Control (100 uM Levosimendan)
Method in brief: as §1

[7] = biological target: PIM3 (Homo sapiens, UniProt Q86V86); conditions: competition binding, % of control
Method in brief: as §1

[8] = biological target: T2, PKAC-alpha (Homo sapiens, UniProt P17612); conditions: competition binding, % of control; read-out: Percent Control (100 uM Levosimendan)
T2 construct: gene PRKACA
Method in brief: as §1

[9] = biological target: TRPM6 (Homo sapiens, UniProt Q9BX84); conditions: competition binding, % of control; read-out: Percent Control (100 uM Levosimendan)
Method in brief: as §1

[10] = biological target: HIPK2 (Homo sapiens, UniProt Q9H2X6); conditions: competition binding, % of control; read-out: Percent Control (100 uM Levosimendan)
Method in brief: as §1

[11] = biological target: EPHA4 (Homo sapiens, UniProt P54764); conditions: competition binding, % of control; read-out: Percent Control (100 uM Levosimendan)
Method in brief: as §1

[12] = biological target: DAPK2 (Homo sapiens, UniProt Q9UIK4); conditions: competition binding, % of control; read-out: Percent Control (100 uM Levosimendan)
Method in brief: as §1

[13] = biological target: T3, NIK (Homo sapiens, UniProt Q99558); conditions: competition binding, % of control; read-out: Percent Control (100 uM Levosimendan)
T3 construct: gene MAP3K14
Method in brief: as §1

[14] = biological target: NEK2 (Homo sapiens, UniProt P51955); conditions: competition binding, % of control; read-out: Percent Control (100 uM Levosimendan)
Method in brief: as §1

[15] = biological target: PDGFRA (Homo sapiens, UniProt P16234); conditions: competition binding, % of control
Method in brief: as §1

[16] = biological target: T4, PIP5K2C (Homo sapiens, UniProt Q8TBX8); conditions: competition binding, % of control
T4 construct: gene PIP4K2C
Method in brief: as §1

[17] = biological target: T5, ICK (Homo sapiens, UniProt Q9UPZ9); conditions: competition binding, % of control; read-out: Percent Control (100 uM Levosimendan)
T5 construct: gene CILK1
Method in brief: as §1

[18] = biological target: CSNK1A1L (Homo sapiens, UniProt Q8N752); conditions: competition binding, % of control; read-out: Percent Control (100 uM Levosimendan)
Method in brief: as §1

[19] = biological target: T6, PRP4 (Homo sapiens, UniProt Q13523); conditions: competition binding, % of control; read-out: Percent Control (100 uM Levosimendan)
T6 construct: gene PRPF4B
Method in brief: as §1

[20] = read-out: Percent Control (10 uM Levosimendan)
[21] = read-out: Percent Control (100 uM Levosimendan)

PDGFRA, sequence (P16234 whole entry): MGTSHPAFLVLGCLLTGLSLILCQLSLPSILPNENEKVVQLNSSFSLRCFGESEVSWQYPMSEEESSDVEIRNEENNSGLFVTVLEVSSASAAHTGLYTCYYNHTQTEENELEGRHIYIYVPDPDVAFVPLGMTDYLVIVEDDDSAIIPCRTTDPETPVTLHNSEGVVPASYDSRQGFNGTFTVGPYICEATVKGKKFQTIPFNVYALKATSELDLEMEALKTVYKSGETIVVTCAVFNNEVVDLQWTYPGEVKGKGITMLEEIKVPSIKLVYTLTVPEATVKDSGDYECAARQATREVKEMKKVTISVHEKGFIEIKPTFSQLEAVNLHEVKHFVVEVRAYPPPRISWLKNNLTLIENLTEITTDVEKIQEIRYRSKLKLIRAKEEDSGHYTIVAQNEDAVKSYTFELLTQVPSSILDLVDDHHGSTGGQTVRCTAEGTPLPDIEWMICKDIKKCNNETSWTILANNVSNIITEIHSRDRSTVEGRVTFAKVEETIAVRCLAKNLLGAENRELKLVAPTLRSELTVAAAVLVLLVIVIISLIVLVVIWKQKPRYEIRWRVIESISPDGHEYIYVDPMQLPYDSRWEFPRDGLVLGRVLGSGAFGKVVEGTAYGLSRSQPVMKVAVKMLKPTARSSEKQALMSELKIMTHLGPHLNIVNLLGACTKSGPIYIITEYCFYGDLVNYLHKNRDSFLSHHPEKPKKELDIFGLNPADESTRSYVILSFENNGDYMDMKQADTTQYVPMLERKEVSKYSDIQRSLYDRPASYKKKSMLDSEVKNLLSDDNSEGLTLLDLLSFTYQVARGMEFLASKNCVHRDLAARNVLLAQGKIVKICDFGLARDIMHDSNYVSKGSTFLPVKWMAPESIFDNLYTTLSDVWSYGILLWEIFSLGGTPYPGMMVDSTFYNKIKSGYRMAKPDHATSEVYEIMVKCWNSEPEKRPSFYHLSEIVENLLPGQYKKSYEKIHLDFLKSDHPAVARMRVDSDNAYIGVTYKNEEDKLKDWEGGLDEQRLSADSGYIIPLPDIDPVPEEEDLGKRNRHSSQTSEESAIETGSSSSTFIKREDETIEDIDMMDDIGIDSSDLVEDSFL
T4 sequence (Q8TBX8 whole entry): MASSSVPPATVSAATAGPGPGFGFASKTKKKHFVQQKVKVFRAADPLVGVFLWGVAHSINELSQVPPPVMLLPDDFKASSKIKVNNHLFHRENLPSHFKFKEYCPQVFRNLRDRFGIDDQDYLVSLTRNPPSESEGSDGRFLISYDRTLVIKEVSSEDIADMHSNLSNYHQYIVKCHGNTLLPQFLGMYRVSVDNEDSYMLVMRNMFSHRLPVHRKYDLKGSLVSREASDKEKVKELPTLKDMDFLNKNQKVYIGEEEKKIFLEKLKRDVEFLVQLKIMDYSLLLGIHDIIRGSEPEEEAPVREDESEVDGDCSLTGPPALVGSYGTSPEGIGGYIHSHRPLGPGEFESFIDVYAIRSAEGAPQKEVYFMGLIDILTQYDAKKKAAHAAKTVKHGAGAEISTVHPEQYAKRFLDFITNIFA
EPHA3, sequence (P29320 whole entry): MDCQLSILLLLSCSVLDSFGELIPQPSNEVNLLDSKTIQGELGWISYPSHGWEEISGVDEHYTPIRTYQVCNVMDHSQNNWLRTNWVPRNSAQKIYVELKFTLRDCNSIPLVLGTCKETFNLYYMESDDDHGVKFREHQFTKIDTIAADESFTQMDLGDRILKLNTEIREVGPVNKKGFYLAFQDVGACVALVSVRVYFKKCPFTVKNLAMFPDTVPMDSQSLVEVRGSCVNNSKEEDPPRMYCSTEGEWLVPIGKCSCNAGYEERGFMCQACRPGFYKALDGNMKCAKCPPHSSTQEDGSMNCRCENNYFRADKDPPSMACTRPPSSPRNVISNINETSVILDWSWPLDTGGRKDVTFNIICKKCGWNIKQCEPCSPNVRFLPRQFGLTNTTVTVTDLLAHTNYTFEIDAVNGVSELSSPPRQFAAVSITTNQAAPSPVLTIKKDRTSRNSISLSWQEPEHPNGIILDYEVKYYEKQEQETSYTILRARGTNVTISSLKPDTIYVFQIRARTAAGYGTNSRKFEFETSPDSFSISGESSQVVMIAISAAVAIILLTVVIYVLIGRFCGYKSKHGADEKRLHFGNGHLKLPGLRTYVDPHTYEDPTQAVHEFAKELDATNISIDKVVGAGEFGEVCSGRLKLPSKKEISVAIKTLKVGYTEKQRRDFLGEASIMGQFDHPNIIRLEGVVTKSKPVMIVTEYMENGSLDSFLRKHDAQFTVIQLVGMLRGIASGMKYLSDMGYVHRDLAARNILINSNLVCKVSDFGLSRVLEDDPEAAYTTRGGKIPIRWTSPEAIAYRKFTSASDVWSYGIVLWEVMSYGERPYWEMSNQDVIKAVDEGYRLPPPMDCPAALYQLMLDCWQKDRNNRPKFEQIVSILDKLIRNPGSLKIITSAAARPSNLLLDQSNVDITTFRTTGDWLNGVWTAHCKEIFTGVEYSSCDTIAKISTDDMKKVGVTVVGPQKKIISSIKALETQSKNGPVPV
TRPM6, sequence (Q9BX84 whole entry): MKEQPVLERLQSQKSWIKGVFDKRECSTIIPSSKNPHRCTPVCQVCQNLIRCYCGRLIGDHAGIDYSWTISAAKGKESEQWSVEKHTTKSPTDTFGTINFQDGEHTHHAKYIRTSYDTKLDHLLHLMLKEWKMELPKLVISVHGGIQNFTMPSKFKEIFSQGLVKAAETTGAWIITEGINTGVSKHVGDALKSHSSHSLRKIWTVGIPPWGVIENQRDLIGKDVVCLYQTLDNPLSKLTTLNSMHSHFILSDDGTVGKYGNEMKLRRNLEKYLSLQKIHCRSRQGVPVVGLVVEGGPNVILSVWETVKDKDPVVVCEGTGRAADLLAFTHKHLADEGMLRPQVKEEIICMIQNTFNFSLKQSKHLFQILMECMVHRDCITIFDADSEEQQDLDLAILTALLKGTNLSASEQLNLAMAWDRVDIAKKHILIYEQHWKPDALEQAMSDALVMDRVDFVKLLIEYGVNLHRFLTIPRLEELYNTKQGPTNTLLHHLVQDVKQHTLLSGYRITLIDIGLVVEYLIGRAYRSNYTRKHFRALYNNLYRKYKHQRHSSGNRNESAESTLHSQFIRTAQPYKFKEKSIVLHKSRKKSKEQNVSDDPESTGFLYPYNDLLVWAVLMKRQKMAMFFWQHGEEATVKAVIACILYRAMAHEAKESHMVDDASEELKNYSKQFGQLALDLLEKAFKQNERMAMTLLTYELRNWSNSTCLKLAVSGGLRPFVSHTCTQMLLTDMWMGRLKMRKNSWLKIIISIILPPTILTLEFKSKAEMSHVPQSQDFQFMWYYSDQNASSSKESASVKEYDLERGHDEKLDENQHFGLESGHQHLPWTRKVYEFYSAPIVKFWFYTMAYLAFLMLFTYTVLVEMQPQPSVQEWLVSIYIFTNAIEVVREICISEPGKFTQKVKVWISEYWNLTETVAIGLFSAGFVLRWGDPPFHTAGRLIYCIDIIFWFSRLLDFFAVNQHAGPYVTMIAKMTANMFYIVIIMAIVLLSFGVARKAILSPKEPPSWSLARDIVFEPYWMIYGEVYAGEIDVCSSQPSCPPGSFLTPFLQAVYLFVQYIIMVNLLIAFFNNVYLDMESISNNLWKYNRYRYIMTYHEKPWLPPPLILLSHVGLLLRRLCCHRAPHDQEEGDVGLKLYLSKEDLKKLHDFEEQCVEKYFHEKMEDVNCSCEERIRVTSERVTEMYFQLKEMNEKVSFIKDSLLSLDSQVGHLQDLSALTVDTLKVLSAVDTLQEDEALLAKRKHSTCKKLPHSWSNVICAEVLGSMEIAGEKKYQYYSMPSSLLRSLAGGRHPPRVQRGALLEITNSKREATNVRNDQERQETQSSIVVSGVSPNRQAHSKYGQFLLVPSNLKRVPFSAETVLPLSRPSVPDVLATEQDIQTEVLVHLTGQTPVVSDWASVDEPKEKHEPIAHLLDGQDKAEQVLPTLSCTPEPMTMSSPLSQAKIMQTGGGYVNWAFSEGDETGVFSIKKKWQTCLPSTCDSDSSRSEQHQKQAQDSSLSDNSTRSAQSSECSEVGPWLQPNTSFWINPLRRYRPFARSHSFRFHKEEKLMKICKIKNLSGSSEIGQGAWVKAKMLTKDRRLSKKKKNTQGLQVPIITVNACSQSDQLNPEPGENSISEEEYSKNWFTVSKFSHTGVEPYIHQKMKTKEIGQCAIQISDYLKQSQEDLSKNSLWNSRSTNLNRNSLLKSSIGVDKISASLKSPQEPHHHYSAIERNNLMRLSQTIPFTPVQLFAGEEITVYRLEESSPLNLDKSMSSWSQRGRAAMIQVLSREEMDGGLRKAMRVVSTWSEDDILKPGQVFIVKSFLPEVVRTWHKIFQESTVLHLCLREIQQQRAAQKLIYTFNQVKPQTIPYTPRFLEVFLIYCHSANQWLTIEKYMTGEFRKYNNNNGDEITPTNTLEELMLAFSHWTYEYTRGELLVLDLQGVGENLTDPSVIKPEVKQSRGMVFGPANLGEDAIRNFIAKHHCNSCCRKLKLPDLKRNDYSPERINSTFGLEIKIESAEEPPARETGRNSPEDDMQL

- remaining binding at 100 µM [1]: 75%
- remaining binding at 100 µM [2]: 100%
- remaining binding at 100 µM [3]: 81%
- remaining binding at 100 µM [4]: 89%
- remaining binding at 100 µM [5]: 97%
- remaining binding at 100 µM [6]: 95%
- remaining binding at 10 µM [7, 20]: 75%
- remaining binding at 100 µM [7, 21]: 17%
- remaining binding at 100 µM [8]: 94%
- remaining binding at 100 µM [9]: 89%
- remaining binding at 100 µM [10]: 69%
- remaining binding at 100 µM [11]: 82%
- remaining binding at 100 µM [12]: 73%
- remaining binding at 100 µM [13]: 83%
- remaining binding at 100 µM [14]: 96%
- remaining binding at 10 µM [15, 20]: 73%
- remaining binding at 100 µM [15, 21]: 37%
- remaining binding at 10 µM [16, 20]: 52%
- remaining binding at 100 µM [16, 21]: 5.9%
- remaining binding at 100 µM [17]: 94%
- remaining binding at 100 µM [18]: 55%
- remaining binding at 100 µM [19]: 100%
SMILES: C[C@@H]1CC(=O)NN=C1c1ccc(NN=C(C#N)C#N)cc1 [levosimendan]
